US11427558B1, “Indazoles and azaindazoles as LRRK2 inhibitors” (ESCAPE Bio, Inc., priority 2019, dated 2022)

Experiments:
[1] = molecular target: Recombinant G2019S-LRRK2 protein (Homo sapiens (Human), UniProt Q5S007, G2019S); assay: LRRK2 kinase activity, LanthaScreen TR-FRET assay (G2019S); assay type: biochemical; conditions: LRRKtide 400 nM, 25 μM ATP, 60 min
Summary of the method: (§1)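 Recombinant human wild-type or G2019S LRRK2 phosphorylated fluorescein-labelled LRRKtide (ERM-based) with ATP and serially diluted compound for 60 min at room temperature.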

[2] = molecular target: Recombinant wild type LRRK2 protein (Homo sapiens (Human), UniProt Q5S007); assay: LRRK2 kinase activity, LanthaScreen TR-FRET assay (wild type); assay type: biochemical; conditions: LRRKtide 400 nM, 25 μM ATP, 60 min; read-out: LRRK2 WT IC50
Summary of the method: as §1

Chain of Recombinant wild type LRRK2 protein (Q5S007 whole entry): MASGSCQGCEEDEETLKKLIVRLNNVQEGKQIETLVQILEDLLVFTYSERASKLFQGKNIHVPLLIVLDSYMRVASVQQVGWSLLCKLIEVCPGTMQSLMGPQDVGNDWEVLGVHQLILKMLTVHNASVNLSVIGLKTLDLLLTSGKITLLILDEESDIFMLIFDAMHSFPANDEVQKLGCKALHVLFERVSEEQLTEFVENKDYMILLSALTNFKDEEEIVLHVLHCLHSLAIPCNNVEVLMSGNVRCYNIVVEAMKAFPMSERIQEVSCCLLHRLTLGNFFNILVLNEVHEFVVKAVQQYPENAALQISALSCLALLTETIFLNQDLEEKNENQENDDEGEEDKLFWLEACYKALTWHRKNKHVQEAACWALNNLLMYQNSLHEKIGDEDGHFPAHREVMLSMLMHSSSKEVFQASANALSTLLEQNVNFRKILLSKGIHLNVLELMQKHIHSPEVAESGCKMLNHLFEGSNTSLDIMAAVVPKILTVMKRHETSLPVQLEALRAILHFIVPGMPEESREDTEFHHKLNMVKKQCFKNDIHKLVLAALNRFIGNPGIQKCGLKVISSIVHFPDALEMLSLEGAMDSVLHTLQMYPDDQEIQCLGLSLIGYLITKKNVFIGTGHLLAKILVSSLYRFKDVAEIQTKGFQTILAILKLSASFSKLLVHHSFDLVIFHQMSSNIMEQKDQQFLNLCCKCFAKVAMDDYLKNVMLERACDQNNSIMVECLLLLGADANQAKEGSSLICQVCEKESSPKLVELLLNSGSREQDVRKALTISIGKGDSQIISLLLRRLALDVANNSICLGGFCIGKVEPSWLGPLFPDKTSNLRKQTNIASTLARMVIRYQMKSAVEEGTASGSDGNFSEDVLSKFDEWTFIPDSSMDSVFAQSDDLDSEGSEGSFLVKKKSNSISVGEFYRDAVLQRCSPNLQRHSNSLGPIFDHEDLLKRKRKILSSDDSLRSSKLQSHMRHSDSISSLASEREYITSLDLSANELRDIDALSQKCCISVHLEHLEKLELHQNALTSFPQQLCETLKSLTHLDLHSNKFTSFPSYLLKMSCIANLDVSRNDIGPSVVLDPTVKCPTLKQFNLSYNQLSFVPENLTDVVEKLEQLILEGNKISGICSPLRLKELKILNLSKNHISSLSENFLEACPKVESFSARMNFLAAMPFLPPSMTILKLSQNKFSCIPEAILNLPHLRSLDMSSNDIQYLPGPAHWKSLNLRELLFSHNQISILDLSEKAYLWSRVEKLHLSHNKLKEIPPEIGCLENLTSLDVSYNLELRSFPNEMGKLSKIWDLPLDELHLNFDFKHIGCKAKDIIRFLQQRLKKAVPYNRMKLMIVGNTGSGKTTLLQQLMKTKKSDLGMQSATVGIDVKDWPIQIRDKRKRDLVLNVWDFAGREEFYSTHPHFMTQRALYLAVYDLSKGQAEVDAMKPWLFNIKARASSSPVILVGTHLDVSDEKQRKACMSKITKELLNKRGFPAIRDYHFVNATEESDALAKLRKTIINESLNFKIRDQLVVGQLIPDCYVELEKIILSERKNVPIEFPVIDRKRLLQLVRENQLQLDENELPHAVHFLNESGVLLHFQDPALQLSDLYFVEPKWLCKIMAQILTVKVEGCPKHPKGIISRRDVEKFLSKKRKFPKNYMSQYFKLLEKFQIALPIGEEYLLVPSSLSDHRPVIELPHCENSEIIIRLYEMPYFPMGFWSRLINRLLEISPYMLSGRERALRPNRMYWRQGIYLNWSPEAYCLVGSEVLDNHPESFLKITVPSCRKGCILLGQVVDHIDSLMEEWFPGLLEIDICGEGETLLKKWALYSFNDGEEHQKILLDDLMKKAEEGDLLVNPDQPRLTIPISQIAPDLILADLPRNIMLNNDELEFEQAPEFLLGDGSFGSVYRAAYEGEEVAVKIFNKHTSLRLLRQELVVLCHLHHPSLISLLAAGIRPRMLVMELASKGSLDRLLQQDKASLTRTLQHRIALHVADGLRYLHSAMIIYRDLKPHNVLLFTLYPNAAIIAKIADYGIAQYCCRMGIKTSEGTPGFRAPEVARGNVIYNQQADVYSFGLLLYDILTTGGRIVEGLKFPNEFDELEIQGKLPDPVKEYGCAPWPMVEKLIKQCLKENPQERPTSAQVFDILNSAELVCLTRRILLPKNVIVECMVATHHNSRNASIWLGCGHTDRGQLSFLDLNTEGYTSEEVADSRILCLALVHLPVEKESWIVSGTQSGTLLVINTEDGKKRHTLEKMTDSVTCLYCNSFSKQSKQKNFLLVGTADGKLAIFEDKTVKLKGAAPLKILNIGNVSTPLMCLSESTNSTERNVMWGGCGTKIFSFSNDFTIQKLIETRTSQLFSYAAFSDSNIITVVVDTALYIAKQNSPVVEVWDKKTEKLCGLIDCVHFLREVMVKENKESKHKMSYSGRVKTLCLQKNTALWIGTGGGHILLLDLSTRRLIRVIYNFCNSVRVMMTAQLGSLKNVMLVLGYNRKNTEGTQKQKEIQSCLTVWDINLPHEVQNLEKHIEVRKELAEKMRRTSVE
Chain of Recombinant G2019S-LRRK2 protein (Q5S007 whole entry G2019S): as the sequence (Q5S007 whole entry) above, with G2019S counted along it

| Compound | IC50 [1] [nM] | IC50 [2] [nM] |
| --- | --- | --- |
| N#Cc1ccc(C(=O)Nc2ccc3[nH]nc(-c4ccoc4)c3c2)c2ncccc12 [Example 142, 5-Cyano-N-(3-(furan-3-yl)-1H-indazol-5-yl)quinoline-8-carboxamide] | < 100 | 100 to 1000 |
| Cc1cc(C#N)cnc1C(=O)Nc1cc(F)c2[nH]nc(-c3ccoc3)c2c1 [Example 143, 5-Cyano-N-(7-fluoro-3-(furan-3-yl)-1H-indazol-5-yl)-3-methylpicolinamide] | < 100 | 100 to 1000 |
| N#Cc1ccnc(C(=O)Nc2ccc3[nH]nc(-c4ccoc4)c3c2)c1Cl [Example 144, 3-Chloro-4-cyano-N-(3-(furan-3-yl)-1H-indazol-5-yl)picolinamide] | < 100 | < 100 |
| Cc1nc(C#N)cnc1C(=O)Nc1ccc2[nH]nc(-c3ccoc3)c2c1 [Example 145, 5-Cyano-N-(3-(furan-3-yl)-1H-indazol-5-yl)-3-methylpyrazine-2-carboxamide] | < 100 | < 100 |
| Cc1cc(C#N)cnc1C(=O)Nc1ccc2[nH]nc(-c3cnoc3)c2c1 [Example 146, 5-Cyano-N-(3-(isoxazol-4-yl)-1H-indazol-5-yl)-3-methylpicolinamide] | < 100 | 100 to 1000 |
| Cc1ncc(C#N)nc1C(=O)Nc1ccc2[nH]nc(-c3ccoc3)c2c1 [Example 147, 6-Cyano-N-(3-(furan-3-yl)-1H-indazol-5-yl)-3-methylpyrazine-2-carboxamide] | < 100 | < 100 |
| Cc1ccc(C#N)nc1C(=O)Nc1ccc2[nH]nc(-c3ccoc3)c2c1 [Example 148, 6-Cyano-N-(3-(furan-3-yl)-1H-indazol-5-yl)-3-methylpicolinamide] | < 100 | < 100 |
| CCc1c(C#N)ccnc1C(=O)Nc1ccc2[nH]nc(-c3ccoc3)c2c1 [Example 149, 4-Cyano-3-ethyl-N-(3-(furan-3-yl)-1H-indazol-5-yl)picolinamide] | < 100 | 100 to 1000 |
| C#Cc1cc(C#N)cnc1C(=O)Nc1ccc2[nH]nc(-c3ccoc3)c2c1 [Example 150] | 100 to 1000 | 100 to 1000 |
| Cc1cc(C#N)cnc1C(=O)Nc1ccc2[nH]nc(-c3ccc(=O)n(C)c3)c2c1 [Example 151, 5-Cyano-3-methyl-N-(3-(1-methyl-6-oxo-1,6-dihydropyridin-3-yl)-1H-indazol-5-yl)picolinamide] | < 100 | 100 to 1000 |
| Cc1cc(C#N)cnc1C(=O)Nc1ccc2[nH]nc(-c3ccn(C)c(=O)c3)c2c1 [Example 152, 5-cyano-3-methyl-N-(3-(1-methyl-2-oxo-1,2-dihydropyridin-4-yl)-1H-indazol-5-yl)picolinamide] | 100 to 1000 | 1000 to 10000 |
| Cc1cc(C#N)cnc1C(=O)Nc1ccc2[nH]nc(-c3ccn(C)n3)c2c1 [Example 153, 5-Cyano-3-methyl-N-(3-(1-methyl-1H-pyrazol-3-yl)-1H-indazol-5-yl)picolinamide] | 100 to 1000 | 1000 to 10000 |
| N#Cc1cnc(C(=O)Nc2ccc3[nH]nc(-c4ccoc4)c3c2)c(O)c1 [Example 154, 5-Cyano-N-(3-(furan-3-yl)-1H-indazol-5-yl)-3-hydroxypicolinamide] | < 100 | 100 to 1000 |
| Cc1cc(C#N)cnc1C(=O)Nc1cc2c(-c3ccoc3)n[nH]c2cn1 [Example 155] | < 100 | 1000 to 10000 |
| Cc1cc(C#N)cnc1C(=O)Nc1ccc2[nH]nc(-c3cscn3)c2c1 [Example 156, 5-Cyano-3-methyl-N-(3-(thiazol-4-yl)-1H-indazol-5-yl)picolinamide] | 100 to 1000 | 100 to 1000 |
| Cc1c(C#N)cnc(C(=O)Nc2ccc3[nH]nc(-c4cnn(C(F)F)c4)c3c2)c1C [Example 157, 5-Cyano-N-(3-(1-(difluoromethyl)-1H-pyrazol-4-yl)-1H-indazol-5-yl)-3,4-dimethylpicolinamide] | < 100 | < 100 |
| Cc1c(C#N)cnc(C(=O)Nc2ccc3[nH]nc(-c4cnco4)c3c2)c1C [Example 158, 5-Cyano-3,4-dimethyl-N-(3-(oxazol-5-yl)-1H-indazol-5-yl)picolinamide] | < 100 | < 100 |
| COc1cc(-c2n[nH]c3ccc(NC(=O)c4ncc(C#N)c(C)c4C)cc23)ccn1 [Example 159, 5-Cyano-N-(3-(2-methoxypyridin-4-yl)-1H-indazol-5-yl)-3,4-dimethylpicolinamide] | < 100 | < 100 |
| Cc1cc(C#N)cnc1C(=O)Nc1ccc2[nH]nc(-c3cnsc3)c2c1 [Example 160, 5-Cyano-N-(3-(isothiazol-4-yl)-1H-indazol-5-yl)-3-methylpicolinamide] | < 100 | < 100 |

| Compound | IC50 [1] [nM] | IC50 [2] [nM] |
| --- | --- | --- |
| Cc1cc(C#N)cnc1C(=O)Nc1ncc2[nH]nc(-c3ccoc3)c2n1 [Example 161, 5-Cyano-N-(3-(furan-3-yl)-1H-pyrazolo[4,3-d]pyrimidin-5-yl)-3-methylpicolinamide] | 100 to 1000 | 1000 to 10000 |
| Cc1cc(C#N)nnc1C(=O)Nc1ccc2[nH]nc(-c3ccoc3)c2c1 [Example 162, 6-Cyano-N-(3-(furan-3-yl)-1H-indazol-5-yl)-4-methylpyridazine-3-carboxamide] | < 100 | 100 to 1000 |
| N#Cc1ccc(F)c(C(=O)Nc2ccc3[nH]nc(-c4cnn(C(F)F)c4)c3c2)c1F [Example 163, 3-Cyano-N-(3-(1-(difluoromethyl)-1H-pyrazol-4-yl)-1H-indazol-5-yl)-2,6-difluorobenzamide] | < 100 | < 100 |
| COc1c(C#N)cccc1C(=O)Nc1ccc2[nH]nc(-c3cnn(C(F)F)c3)c2c1 [Example 164, 3-Cyano-N-(3-(1-(difluoromethyl)-1H-pyrazol-4-yl)-1H-indazol-5-yl)-2-methoxybenzamide] | < 100 | < 100 |
| N#Cc1cccc(C(=O)Nc2ccc3[nH]nc(-c4cnn(C(F)F)c4)c3c2)c1F [Example 167, 3-Cyano-N-(3-(1-(difluoromethyl)-1H-pyrazol-4-yl)-1H-indazol-5-yl)-2-fluorobenzamide] | < 100 | < 100 |
| Cc1c(C#N)cnc(C(=O)Nc2ccc3[nH]nc(-c4cnoc4)c3c2)c1C [Example 168, 5-Cyano-N-(3-(isoxazol-4-yl)-1H-indazol-5-yl)-3,4-dimethylpicolinamide] | < 100 | < 100 |
| Cc1c(C#N)cnc(C(=O)Nc2ccc3[nH]nc(-c4cnn(C(F)(F)F)c4)c3c2)c1C [Example 169, 5-Cyano-3,4-dimethyl-N-(3-(1-(trifluoromethyl)-1H-pyrazol-4-yl)-1H-indazol-5-yl)picolinamide] | < 100 | < 100 |
| COc1cc(-c2n[nH]c3ccc(NC(=O)c4ccnc(C#N)c4F)cc23)ccn1 [Example 170, 2-Cyano-3-fluoro-N-(3-(2-methoxypyridin-4-yl)-1H-indazol-5-yl)isonicotinamide] | < 100 | 100 to 1000 |
| Cc1c(C#N)cnc(C(=O)Nc2ccc3[nH]nc(-c4cncc(Cl)c4)c3c2)c1C [Example 171, N-(3-(5-Chloropyridin-3-yl)-1H-indazol-5-yl)-5-cyano-3,4-dimethylpicolinamide] | < 100 | < 100 |
| Cc1c(C#N)cnc(C(=O)Nc2ccc3[nH]nc(-c4cnn(CF)c4)c3c2)c1C [Example 172, 5-Cyano-N-(3-(1-(fluoromethyl)-1H-pyrazol-4-yl)-1H-indazol-5-yl)-3,4-dimethylpicolinamide] | < 100 | < 100 |
| N#Cc1cccc(C(=O)Nc2ccc3[nH]nc(-c4ccoc4)c3c2)c1C(F)(F)F [Example 173, 3-Cyano-N-(3-(furan-3-yl)-1H-indazol-5-yl)-2-(trifluoromethyl)benzamide] | < 100 | < 100 |
| Cc1ncc(-c2n[nH]c3ccc(NC(=O)c4ncc(C#N)c(C)c4C)cc23)o1 [Example 174, 5-Cyano-3,4-dimethyl-N-(3-(2-methyloxazol-5-yl)-1H-indazol-5-yl)picolinamide] | < 100 | < 100 |
| Cc1c(C(=O)Nc2ccc3[nH]nc(-c4cnn(C(F)F)c4)c3c2)nc(Cl)c(C#N)c1C [Example 175, 6-Chloro-5-cyano-N-(3-(1-(difluoromethyl)-1H-pyrazol-4-yl)-1H-indazol-5-yl)-3,4-dimethylpicolinamide] | < 100 | < 100 |
| COc1c(C#N)cccc1C(=O)Nc1ccc2[nH]nc(-c3cnco3)c2c1 [Example 176, 3-Cyano-2-methoxy-N-(3-(oxazol-5-yl)-1H-indazol-5-yl)benzamide] | < 100 | < 100 |
| Cc1ccc(C#N)c(F)c1C(=O)Nc1ccc2[nH]nc(-c3cnn(C(F)F)c3)c2c1 [Example 177, 3-Cyano-N-(3-(1-(difluoromethyl)-1H-pyrazol-4-yl)-1H-indazol-5-yl)-2-fluoro-6-methylbenzamide] | < 100 | < 100 |
| COc1cc(-c2n[nH]c3ccc(NC(=O)c4ncc(C#N)cc4C(F)(F)F)cc23)ccn1 [Example 178, 5-Cyano-N-(3-(2-methoxypyridin-4-yl)-1H-indazol-5-yl)-3-(trifluoromethyl)picolinamide] | < 100 | < 100 |
| Cc1c(C(=O)Nc2ccc3[nH]nc(-c4ccoc4)c3c2)noc1C#N [Example 179, 5-Cyano-N-(3-(furan-3-yl)-1H-indazol-5-yl)-4-methylisoxazole-3-carboxamide] | < 100 | < 100 |
| Cc1c(C#N)noc1C(=O)Nc1ccc2[nH]nc(-c3ccoc3)c2c1 [Example 180, 3-Cyano-N-(3-(furan-3-yl)-1H-indazol-5-yl)-4-methylisoxazole-5-carboxamide] | 100 to 1000 | 100 to 1000 |
| Cc1c(C#N)cnc(C(=O)Nc2ccc3[nH]nc(-c4cnc(C(C)C)o4)c3c2)c1C [Example 181, 5-Cyano-N-(3-(2-isopropyloxazol-5-yl)-1H-indazol-5-yl)-3,4-dimethylpicolinamide] | < 100 | < 100 |
